From ChEMBL document CHEMBL1123416, “Imidazo[2,1-b]benzothiazoles. 2. New immunosuppressive agents” (1986)
Where “and” joins values, the source holds several entries; their conditions need not be identical. Equal entries are not always repeated.

Tests used:
Assay type in all cases: functional
Mus musculus [1] = test: Significant suppressive activity of delayed type hypersensitivity (DTH) with out inhibition of humoral immunity in mice by oral administration at dose of 400 mg/kg
Mus musculus [2] = test: Compound was tested for its significant suppressive activity of delayed type hypersensitivity (DTH) with out inhibition of humoral immunity in mice by oral administration at dose of 25 mg/kg
Mus musculus [3] = test: Compound was tested for its significant suppressive activity of delayed type hypersensitivity (DTH) with out inhibition of humoral immunity in mice by oral administration at dose of 200 mg/kg
Mus musculus [4] = test: Effect on the plaque forming cell formation in BDF1 mice after peroral administration at dose of 300 mg/kg; conditions: route oral
Mus musculus [5] = test: Compound was tested for its significant suppressive activity of delayed type hypersensitivity (DTH) with out inhibition of humoral immunity in mice by oral administration at dose of 100 mg/kg
Mus musculus [6] = test: Significant suppressive activity of delayed type hypersensitivity (DTH) with out inhibition of humoral immunity in mice by oral administration at dose of 50 mg/kg
Mus musculus [7] = test: Effect on the plaque forming cell formation in BDF1 mice after peroral administration at dose of 10 mg/kg; conditions: route oral
Mus musculus [8] = test: Effect on the plaque forming cell formation in BDF1 mice after peroral administration at dose of 30 mg/kg; conditions: route oral
Mus musculus [9] = test: Effect on the plaque forming cell formation in BDF1 mice after peroral administration at dose of 100 mg/kg; conditions: route oral

Oc1cccc(-c2cn3c(n2)sc2ccccc23)c1
inhibition in vivo at 400 mg/kg (Mus musculus [1]): 79% | Increase in ear thickness (Mus musculus [1]; 400 mg/kg): 0.9 1/100mm and 1.3 1/100mm | Increase in ear thickness (Mus musculus [2]): 5.3 1/100mm | Increase in ear thickness (Mus musculus [3]): 2.8 1/100mm | inhibition in vivo at 200 mg/kg (Mus musculus [3]): 54.8% | PFC/splleen (Mus musculus [4]): 0.182 | Increase in ear thickness (Mus musculus [5]): 2.4 1/100mm | inhibition in vivo at 100 mg/kg (Mus musculus [5]): 61.3% | inhibition in vivo at 50 mg/kg (Mus musculus [6]): 37.1% | Increase in ear thickness (Mus musculus [6]; 50 mg/kg): 3.4 1/100mm and 3.9 1/100mm | PFC/splleen (Mus musculus [7]): 0.177 | PFC/splleen (Mus musculus [8]): 0.138 | PFC/splleen (Mus musculus [9]): 0.198
